Where two headings read alike, the source gives them in different places.
Experiments:
[1] = system: factor 3 of the complement (C3) production in T98G cell line; experiment: Complement factor C3 secretion in the T98G cell line; type: cell-based, human; details: for reducing secretion of factors of the complement (in words): T98G cells
Method: The effect of paracetamol on the production of complement factors has been studied using the human glioblastoma T98G cell line. The said line is in fact capable of constitutively producing factor 3 of the complement (C3) and this synthesis is further increased in the presence of various stimuli such as interleukin-1 beta (IL-1β). Indomethacin has been used as the reference drug.
(§1) The cells (2×10^6 /ml) were incubated for 48 hours in the presence of increasing concentrations of paracetamol (10-100-500-1000 μM) or indomethacin (0, 1-1-10 μM) both in the presence and in the absence of IL-1β (50 U/ml). On completion of incubation, the culture medium was harvested and the quantity of C3 secreted by the cells in the various conditions was measured. C3 was assayed in a sandwich-type immunoenzymatic test, in which two anti-C3 antibodies of different species were used as well as an antiserum labeled with an alkaline phosphatase specific for one of the two anti-C3 antibodies. The secreted C3 was quantified using a standard curve prepared on the basis of purified C3.

[2] = system: interleukin-6 (IL-6) production in T98G cell line; experiment: IL-6 production in the T98G cell line stimulated with β-amyloid; type: cell-based, human
Method: The effect of paracetamol on the production of IL-6 was studied using the human cell line glioblastoma T98G. The said line is in fact capable of constitutively producing IL-6 and this synthesis is augmented in the presence of aggregated β-amyloid. Indomethacin was used as the reference drug.
The cells (2×10^6 /ml) were incubated for 48 hours in the presence of increasing concentrations of paracetamol (10-1000 μM) or indomethacin (0.1-10 μM) in the presence of β-amyloid (50 μM) aggregated by incubation at 37° C. for 6 days. At the end of the experiment the culture medium was harvested and the quantity of IL-6 produced in the various conditions was assayed using a commercial immunoenzymatic kit (Biotrak IL-6, Amersham, UK).

[3] = system: prostaglandin E2 production in J774.2 macrophagic cells; experiment: Prostaglandin E2 production in the J774.2 macrophagic cell line stimulated with LPS; type: cell-based
Method: (§2) Parallel experiments were conducted in which the ability of paracetamol and indomethacin to inhibit the production of prostaglandins produced by the glioblastoma T98G cell line or by the J774.2 cellular macrophagic cell line was assessed.
Parallel to the above experiment, J774.2 (2×10^6 /ml) macrophagic cells were stimulated with lipopolysaccharide (LPS) (1 μg/ml) for 12 hours. After 3 washes with physiological solution, the cells were incubated for 45 minutes together with increasing concentrations of paracetamol (0.1-100 μM) or indomethacin (0.01-1 μM). At the end of incubation the supernatants were harvested and the prostaglandin E2 content was measured using the previously described test.

[4] = system: E2 prostaglandins production in T98G cell line; experiment: Prostaglandin E2 production in the T98G cell line stimulated with IL-1β; type: cell-based, human; details: IL-1β stimulated
Method: as §1, §2
The test with T98G cells stimulated with IL-1β was conducted as described in the previous Example 1. At the end of incubation the culture medium was harvested and the quantity of E2 prostaglandins present was measured. The prostaglandins were assayed by means of a commercially available immunoenzymatic test ([…]).

[5] = system: T98G cell line; experiment: Toxicity in the T98G cellular system; type: cell-based, human; details: concentration above 10 μM not possible
[6] = system: patients suffering from Alzheimer's disease; details: 44 patients, 6 months, in comparison with placebo; cited from earlier work
[7] = system: T98G and J774.2 cell lines; experiment: Selectivity of action on the nervous system (Tables 1 to 4 as a whole); type: cell-based; details: contrary to indomethacin
Method: as §2

[8] = system: onset of the Alzheimer disease; details: retrospective, subjects treated for pain and fever; cited from earlier work
[9] = system: peripheral cycloxygenase; details: cited from earlier work
[10] = cited from earlier work
[11] = low therapeutic doses from 0.5 to 1 g, 3 or 4 times a day; cited from earlier work
[12] = Homo sapiens, T98G, 48 h, read-out: Inhibition % of production of complement (C3)
[13] = Homo sapiens, T98G, 48 h, read-out: Inhibition % of production of IL-6
[14] = Mus musculus, J774.2, 0.75 h, read-out: Inhibition % of production of prostaglandins
[15] = Homo sapiens, T98G, 48 h, IL-1β stimulated (50 U/ml)
[16] = Homo sapiens, T98G, 48 h, not stimulated with IL-1β

## COc1ccc2c(c1)c(CC(=O)O)c(C)n2C(=O)c1ccc(Cl)cc1 [Indomethacin]
[1]; [12]
  inhibition at 0.1 µM: 26.9%
  inhibition at 1 µM: 21.7%
  inhibition at 10 µM: 35.1%
[1]; Homo sapiens, T98G, read-out: inhibiting activity on secretion of the complement
  inhibition at 10 µM: 35%
[1]
  reducing secretion of factors of the complement (in words): active in reducing the secretion of the complement
[1]; listed as indomethacin
  reducing secretion of factors of the complement (in words): capable of reducing secretion of factors of the complement
[2]; [13]
  inhibition at 0.1 µM: 21.1%
  inhibition at 1 µM: 17.6%
  inhibition at 10 µM: 11.5%
[3]; [14]
  inhibition at 0.01 µM: 35.8%
  inhibition at 0.1 µM: 61.1%
  inhibition at 1 µM: 87.4%
[4]; Homo sapiens, 0.1 μM
  inhibition at 0.1 µM: 99.3%
[4]; Homo sapiens, 1 μM
  inhibition at 1 µM: 98.4%
[4]; Homo sapiens
  inhibition at 10 µM: 99.1%
[4]
  inhibiting production of prostaglandins in glial cells (in words): capable of inhibiting production of prostaglandins in the glial cells of the central nervous system in a significant manner
[5]
  toxicity in the cellular system used: because of its toxicity in the cellular system used, it was not possible to increase its concentration above 10 μM
[6]
  progression of dementia: notable slowing of the progression of dementia

## CC(=O)Nc1ccc(O)cc1 [Paracetamol, N-acetyl-p-aminophenol]
[7]
  selectivity of action on the nervous system: peculiar selectivity of action on the nervous system
[1]; Homo sapiens, T98G, 48 h, IL-1β stimulated (50 U/ml), 100 μM
  inhibition at 100 µM: 23.6%
[1]; [15]
  inhibition at 500 µM: 39.8%
  inhibition at 1000 µM: 47.5%
[1]; Homo sapiens, T98G, 48 h, IL-1β stimulated (50 U/ml), 48 hours, 10 μM, read-out: Inhibition % of production of complement (C3)
  inhibition at 10 µM: 0.1%
[1]; [16]
  inhibition at 500 µM: 37.4%
  inhibition at 1000 µM: 60.8%
[1]; Homo sapiens, T98G, cells stimulated with interleukin-1 beta, read-out: Cl50 for secretion of C3
  IC50: ~1000 µM
[1]
  reducing secretion of factors of the complement (in words): capable of reducing secretion of factors of the complement
[2]; Homo sapiens, T98G, β-amyloid stimulated (50 μM), 48 hours, 10 μM, read-out: Inhibition % of production of IL-6
  inhibition at 10 µM: 11.4%
[2]; Homo sapiens, T98G, β-amyloid stimulated (50 μM), 48 hours, 100 μM
  inhibition at 100 µM: 6.7%
[2]; Homo sapiens, T98G, β-amyloid stimulated (50 μM), 48 hours, 500 μM
  inhibition at 500 µM: 20.5%
[2]; Homo sapiens, T98G, β-amyloid stimulated (50 μM), 48 hours, 1000 μM
  inhibition at 1000 µM: 41.2%
[2]; Homo sapiens, T98G, β-amyloid stimulated, read-out: Cl50 for production of IL-6
  IC50: > 1000 µM
[2]; in the presence of β-amyloid
  reducing the secretion of IL-6 (in words): capable of reducing the secretion of IL-6
[8]
  delay in the onset of the Alzheimer disease: negative
[3]; J774.2, LPS stimulated
  inhibiting activity on production of prostaglandins in macrophages (in words): little inhibiting activity on production of prostaglandins in macrophages
[3]; Mus musculus, 0.75 h, J774.2, LPS stimulated (1 μg/ml), 45 minutes, 0.1 μM, read-out: Inhibition % of production of prostaglandins
  inhibition at 0.1 µM: 5.3%
[3]; Mus musculus, 0.75 h, J774.2, LPS stimulated (1 μg/ml), 45 minutes, 1 μM, read-out: Inhibition % of production of prostaglandins
  inhibition at 1 µM: 6.4%
[3]; Mus musculus, 0.75 h, J774.2, LPS stimulated (1 μg/ml), 45 minutes, 10 μM, read-out: Inhibition % of production of prostaglandins
  inhibition at 10 µM: 12.5%
[3]; Mus musculus, 0.75 h, J774.2, LPS stimulated (1 μg/ml), 45 minutes, 100 μM, read-out: Inhibition % of production of prostaglandins
  inhibition at 100 µM: 11.4%
[4]; Homo sapiens
  inhibition at 10 µM: 26.7%
[4]; Homo sapiens, 100 μM
  inhibition at 100 µM: 88.5%
[4]; Homo sapiens, 500 μM
  inhibition at 500 µM: 96.9%
[4]; Homo sapiens, 1000 μM
  inhibition at 1000 µM: 99%
[4]
  inhibiting production of prostaglandins in glial cells (in words): capable of inhibiting production of prostaglandins in the glial cells of the central nervous system in a significant manner
[9]
  action on peripheral cycloxygenase: absence of action on peripheral cycloxygenase
[10]; after 6 hours, oral administration of 1 g
  plasma concentration: approximately 1.5 mg/l
[10]; in words, including the brain
  tissue distribution: distributed evenly throughout the major part of the tissues of the organism, including the brain
[10]; in words
  absorption: rapidly absorbed
[10]; oral administration
  tissue concentration relative to plasma: substantially the same as the plasma concentration
[10]; within a few minutes of oral administration of 1 g
  plasma concentration: approximately 10 mg/l
[10]; within a few minutes of oral administration of 1 g, read-out: plasma concentration
  concentration: ~66.2 µM
[11]
  side effects: no significant side effects
  tolerability: well tolerated

Source: patent US6043285A, “Use of p-aminophenol derivatives for the preparation of pharmaceutical compositions useful in the treatment of neurodegenerative diseases” (Angelini Ricerche S.p.A. Societa'Consortile, priority 1996, dated 2000)
